Assay results taken from patent US20260232706A1, “1H-PYRAZOLE ANALOGUES AND METHODS AND USES THEREOF” (University of Manitoba, priority 2022, published 2026).

Test system: WG37R mice
Experiment: 14-day acute toxicity assessment in WG37R mice
Type: in vivo
Conditions: for H&E histology compared with control mice / signs of overt degeneration, inflammation and necrosis in examined tissues: single IP 10 mg/kg
Experimental: The WG37R mice were randomly assigned to 2 groups: For the first set of the experiment, a total of 6 animals per group (3 male and 3 female) were used in the study. Group 1: Sham treatment 1 (1:20 DMSO/PBS) and Group 2: NS-1-2 (10 mg/kg body weight). According to requirement of acute toxicity study, 6-10 animals should be used to evaluate the effect of a substance. However, as the new analogues are structurally similar to Edaravone, having a single-dose safety profile of 450 mg/kg, the mortality of the Edaravone analogues at a dose of 10 mg/kg body weight/day was not expected. Considering the above facts, for the present acute study, the minimum number of animals was 6 per group. Morphological alterations, histological changes, and mean body weight assessments for whole set of animals, for both the WG37R control groups (N=6; 1:20, DMSO:PBS) and WG37R treated groups (N=6; NS-1-2; 10 mg/kg bodyweight) were assessed during the 14-day acute toxicity assessment, by giving a single IP injection to the mouse at 2 months of age (see further detail in (iia) below.
For intraperitoneal administration, about 1:20 of DMSO/PBS, at a pH of about 7.4 was used for the suspension of NS-1-2 test substance. Edaravone was dissolved in about 1 mL of about 1 mol/L NaOH and adjusted to about pH 7.4 by adding about 1 mol/L HCl, and then diluted in saline. A volume of about 400 μl from final reconstituted solution was aliquoted and stored in about −80° C., until further use. For acute toxicity experiments, a single dose of about 10 mg/kg bodyweight of NS-1-2 was intraperitoneally injected to group 2, WG37R mice model at the age of 2 months. The WG37R mice in the group 1 received an injection of equal volume of (about 1:20; DMSO:PBS) instead. For chronic toxicity experiments, 120 daily doses of about 10 mg/kg bodyweight of NS-1-2 was intraperitoneally injected to group 4, WG37R mice model at the age of 3 months for 120 days, until the age of 7 months. The WG37R mice in the group 3 received an injection of equal volume of (about 1:20; DMSO:PBS) instead.
Wild type (WT) G37R mice received a single dose (about 0.2 mls) IP injection of Sham suspended in (about 1:20; DMSO:PBS) and a single dose of about 10 mg/kg bodyweight (about 0.2 mls) IP injection of NS-1-2 suspended in about 1:20; DMSO:PBS at the age of 2 months. […] At the experimental endpoint, the mice were first deeply anesthetized with a mixture of about 20% v/v isoflurane/propylene glycol (about 1 ml of the mixture per about 500 ml of bell jar space, University of Manitoba animal care SOP A003) and than exsanguination was done by cutting the animal's right atrium followed by an intracardiac perfusion with about 0.9% NaCl. During perfusion, syringe barrel nosecone was used for prolonged anesthesia. Cardiac perfusion was followed by perfusion with about 4% paraformaldehyde for histology (H&E staining) analysis. Mouse tissues (brain, heart, spinal cord, kidney, liver, muscle, lung, and spleen) were fixed for about 48 h in about 4% buffered formalin at about 4° C. Only the spinal cord was processed after about 24 h to remove the spine and again fixed for about another 24 h. Samples were processed and embedded into paraffin blocks at the Histomorphology and Ultrastructural Imaging platform, Dept. of Human Anatomy and Cell Science, University of Manitoba. Briefly, the embedded tissues were cut into about 5 μm thickness, mounted on super frost plus slides and dried overnight at about 37° C. Slides were deparaffinized in about 2 changes of xylene and rehydrated in descending alcohols (about 2 changes of about 100% Ethanol and about 2 changes of about 95% Ethanol) and tap water. Slides were stained with Harris Haematoxylin followed by differentiation with acid alcohol. After rinsing in tap water, saturated lithium carbonate was used for Bluing the nucleus. After that the slides were rinsed in tap water and counter stained with eosin. […]

[1] = single 10 mg/kg IP dose, 2 weeks monitoring

In the case of Cc1cc(B2OC(C)(C)C(C)(C)O2)n(-c2ccccc2)n1 [NS-1-2, 3-methyl-5-(4,4,5,5-tetramethyl-1,3,2-dioxaborolan-2-yl)-1-phenyl1H-pyrazole], the “H&E histology compared with control mice” value (G37RWT female mice, FIG. 13) is reported as “no significant differences with respect to control mice”, the “signs of overt degeneration, inflammation and necrosis in examined tissues” value (G37RWT female mice, FIG. 13) is reported as “no signs of overt degeneration, inflammation and necrosis” and the “H&E histology compared with control mice” value (G37RWT male mice, FIG. 12) is reported as “no significant differences with respect to control mice”. For the same molecule, the “signs of overt degeneration, inflammation and necrosis in examined tissues” value (G37RWT male mice, FIG. 12) was “no signs of overt degeneration, inflammation and necrosis”, the “changes in body weight” value (acute treatment, 10 mg/kg, FIG. 10) was “did not induce any abnormal changes in the body weight” and the daily general observations [1] was “normal appearance, normal general behaviour with well-conditioned body condition”. For the same molecule, the treatment-related deaths [1] was “No acute treatment-related deaths”.
